Experimental data taken from PMC5218480 (PLoS ONE, 2017).

Test system: MV-4-11 cells
Assay: Gene expression microarray analysis (Affymetrix PrimeView) and GSEA
Assay type: cell-based, human
Design: RFU PODN (11730768_x_at) / Fold change /veh PODN (11730768_x_at) / RFU LINC00158 (11744669_a_at) / Fold change /veh LINC00158 (11744669_a_at) / RFU DUSP10 (11751237_a_at) / Fold change /veh DUSP10 (11751237_a_at) / RFU ID3 (11757404_x_at) / Fold change /veh ID3 (11757404_x_at) / RFU PLEKHG5 (11737974_s_at) / Fold change /veh PLEKHG5 (11737974_s_at) / RFU LRRC4B (11730491_at) / Fold change /veh LRRC4B (11730491_at) / RFU GIMAP4 (11747438_a_at) / Fold change /veh GIMAP4 (11747438_a_at) / RFU KRT8 (11758183_x_at) / Fold change /veh KRT8 (11758183_x_at) / RFU CNN1 (11734310_a_at) / Fold change /veh CNN1 (11734310_a_at) / RFU VPS37D (11726825_at) / Fold change /veh VPS37D (11726825_at) / RFU C10orf10 (11716522_x_at) / Fold change /veh C10orf10 (11716522_x_at) / RFU KIR2DL2 /// KIR2DL4 /// KIR2DL5A /// KIR2DL5B /// KIR2DS1 /// KIR2DS2 /// KIR2DS3 /// KIR2DS4 /// KIR3DL3 /// KIR3DL3 /// KIR3DS1 (11738374_at) / Fold change /veh KIR2DL2 /// KIR2DL4 /// KIR2DL5A /// KIR2DL5B /// KIR2DS1 /// KIR2DS2 /// KIR2DS3 /// KIR2DS4 /// KIR3DL3 /// KIR3DL3 /// KIR3DS1 (11738374_at) / RFU C1QL1 (11718748_at) / Fold change /veh C1QL1 (11718748_at) / RFU TMPRSS4 (11747572_a_at) / Fold change /veh TMPRSS4 (11747572_a_at) / RFU HAMP (11756126_x_at) / Fold change /veh HAMP (11756126_x_at) / RFU RNFT2 (11725882_a_at) / Fold change /veh RNFT2 (11725882_a_at) / RFU NR4A2 (11747474_a_at) / Fold change /veh NR4A2 (11747474_a_at) / RFU ABCC12 (11746883_a_at) / Fold change /veh ABCC12 (11746883_a_at) / RFU TMEM136 (11760407_x_at) / Fold change /veh TMEM136 (11760407_x_at) / RFU CLDN22 /// WWC2 (11732394_at) / Fold change /veh CLDN22 /// WWC2 (11732394_at) / RFU HLA-DPB1 (11760878_x_at) / Fold change /veh HLA-DPB1 (11760878_x_at) / RFU SPINT1 (11716480_a_at) / Fold change /veh SPINT1 (11716480_a_at) / RFU GAP43 (11754022_s_at) / Fold change /veh GAP43 (11754022_s_at) / RFU A4GNT (11735810_at) / Fold change /veh A4GNT (11735810_at) / RFU PRB3 (11715151_x_at) / Fold change /veh PRB3 (11715151_x_at) / RFU TUBB4B (11761932_at) / Fold change /veh TUBB4B (11761932_at) / RFU CAPN14 (11732068_a_at) / Fold change /veh CAPN14 (11732068_a_at) / RFU TMCC2 (11721928_a_at) / Fold change /veh TMCC2 (11721928_a_at) / RFU IRGQ (11745062_a_at) / Fold change /veh IRGQ (11745062_a_at) / RFU FAM174B (11720279_a_at) / Fold change /veh FAM174B (11720279_a_at) / RFU TMPRSS4 (11748680_a_at) / Fold change /veh TMPRSS4 (11748680_a_at) / RFU FAM212B (11763350_a_at) / Fold change /veh FAM212B (11763350_a_at) / RFU PLEKHG5 (11743358_a_at) / Fold change /veh PLEKHG5 (11743358_a_at) / RFU ZSCAN30 (11745921_a_at) / Fold change /veh ZSCAN30 (11745921_a_at) / RFU CMKLR1 (11741424_a_at) / Fold change /veh CMKLR1 (11741424_a_at) / RFU LOC101060620 /// MAPK8IP1 (11723275_at) / Fold change /veh LOC101060620 /// MAPK8IP1 (11723275_at) / RFU SPTSSB (11747773_x_at) / Fold change /veh SPTSSB (11747773_x_at) / RFU PRSS12 (11739890_at) / Fold change /veh PRSS12 (11739890_at) / RFU BIN1 (11741810_x_at) / Fold change /veh BIN1 (11741810_x_at) / RFU WNT11 (11732464_a_at) / Fold change /veh WNT11 (11732464_a_at) / RFU C10orf10 (11716521_a_at) / Fold change /veh C10orf10 (11716521_a_at) / RFU C5orf56 (11738089_at) / Fold change /veh C5orf56 (11738089_at) / RFU CYB561 (11721691_x_at) / Fold change /veh CYB561 (11721691_x_at) / RFU ANKRD19P (11752326_a_at) / Fold change /veh ANKRD19P (11752326_a_at) / RFU OR2T12 /// OR2T33 /// OR2T8 (11738714_s_at) / Fold change /veh OR2T12 /// OR2T33 /// OR2T8 (11738714_s_at) / RFU VCAN (11748164_a_at) / Fold change /veh VCAN (11748164_a_at) / RFU JSRP1 (11732532_at) / Fold change /veh JSRP1 (11732532_at) / RFU KRTAP10-11 (11738290_x_at) / Fold change /veh KRTAP10-11 (11738290_x_at) / RFU MYO3A (11730013_a_at) / Fold change /veh MYO3A (11730013_a_at) / RFU EBF3 (11725865_a_at) / Fold change /veh EBF3 (11725865_a_at) / RFU CAMK2N1 (11719241_x_at) / Fold change /veh CAMK2N1 (11719241_x_at) / RFU C5orf56 (11738088_a_at) / Fold change /veh C5orf56 (11738088_a_at) / RFU OLFML3 (11715873_a_at) / Fold change /veh OLFML3 (11715873_a_at) / RFU LOC100653217 /// NTM (11731650_a_at) / Fold change /veh LOC100653217 /// NTM (11731650_a_at) / RFU MAPK11 (11762145_a_at) / Fold change /veh MAPK11 (11762145_a_at) / RFU FIZ1 (11724087_x_at) / Fold change /veh FIZ1 (11724087_x_at) / RFU OASL (11726364_x_at) / Fold change /veh OASL (11726364_x_at) / RFU SOX15 (11748057_x_at) / Fold change /veh SOX15 (11748057_x_at) / RFU CD79A (11719716_a_at) / Fold change /veh CD79A (11719716_a_at) / RFU HIST1H1D (11736915_at) / Fold change /veh HIST1H1D (11736915_at) / RFU CASKIN2 (11723855_a_at) / Fold change /veh CASKIN2 (11723855_a_at) / RFU LOC730098 (11760151_x_at) / Fold change /veh LOC730098 (11760151_x_at) / RFU OR4N2 (11742367_at) / Fold change /veh OR4N2 (11742367_at) / RFU PRRT2 (11749266_a_at) / Fold change /veh PRRT2 (11749266_a_at) / RFU SNX32 (11753110_a_at) / Fold change /veh SNX32 (11753110_a_at) / RFU CDHR5 (11726645_a_at) / Fold change /veh CDHR5 (11726645_a_at) / RFU RCAN1 (11760418_a_at) / Fold change /veh RCAN1 (11760418_a_at) / RFU FAM167A (11723789_a_at) / Fold change /veh FAM167A (11723789_a_at) / RFU FAM26E (11764081_at) / Fold change /veh FAM26E (11764081_at) / RFU ISYNA1 (11749810_s_at) / Fold change /veh ISYNA1 (11749810_s_at) / RFU ACY1 (11761880_at) / Fold change /veh ACY1 (11761880_at) / RFU 11764098_at / Fold change /veh 11764098_at / RFU SAMD14 (11745864_x_at) / Fold change /veh SAMD14 (11745864_x_at) / RFU NPB (11741838_a_at) / Fold change /veh NPB (11741838_a_at) / RFU TMPRSS6 (11731388_a_at) / Fold change /veh TMPRSS6 (11731388_a_at) / RFU KRTAP10-2 (11738614_at) / Fold change /veh KRTAP10-2 (11738614_at) / RFU ARHGAP8 /// PRR5-ARHGAP8 (11727945_x_at) / Fold change /veh ARHGAP8 /// PRR5-ARHGAP8 (11727945_x_at) / RFU KRTAP5-7 /// NADSYN1 (11734609_at) / Fold change /veh KRTAP5-7 /// NADSYN1 (11734609_at) / RFU RASL12 (11751679_a_at) / Fold change /veh RASL12 (11751679_a_at) / RFU CDKN2B (11736163_a_at) / Fold change /veh CDKN2B (11736163_a_at) / RFU PRF1 (11729649_at) / Fold change /veh PRF1 (11729649_at) / RFU, ZNF638 /// ZNF638-IT1 / Fold change vs veh, ZNF638 /// ZNF638-IT1 / RFU, PANK3 / Fold change vs veh, PANK3 / RFU, SH3YL1 / Fold change vs veh, SH3YL1 / RFU, ZEB2 / Fold change vs veh, ZEB2 / RFU, NRIP1 / Fold change vs veh, NRIP1 / RFU, PTTG1IP / Fold change vs veh, PTTG1IP / RFU, CAPN2 / Fold change vs veh, CAPN2 / RFU, MED14 / Fold change vs veh, MED14 / RFU, SNORA58 / Fold change vs veh, SNORA58 / RFU, C1orf63 / Fold change vs veh, C1orf63 / RFU, LRRFIP1 / Fold change vs veh, LRRFIP1 / RFU, NDUFAF7 / Fold change vs veh, NDUFAF7 / RFU, SLC12A2 / Fold change vs veh, SLC12A2 / RFU, IBTK / Fold change vs veh, IBTK / RFU, ESF1 / Fold change vs veh, ESF1 / Fold change vs veh, TMEM50B / RFU, TAOK1 / Fold change vs veh, TAOK1 / RFU, ACBD3 / Fold change vs veh, ACBD3 / RFU, TMA16 / Fold change vs veh, TMA16 / RFU, RWDD3 / Fold change vs veh, RWDD3 / RFU, BCAT1 / Fold change vs veh, BCAT1 / RFU, EDEM3 / Fold change vs veh, EDEM3 / RFU, TMEM33 / Fold change vs veh, TMEM33 / RFU, WDR75 / Fold change vs veh, WDR75 / RFU, AHCTF1 / Fold change vs veh, AHCTF1 / RFU, TFRC / Fold change vs veh, TFRC / RFU, ZDHHC17 / Fold change vs veh, ZDHHC17 / RFU, NOM1 / Fold change vs veh, NOM1 / RFU, ARL8B / Fold change vs veh, ARL8B / RFU, ZBTB11 / Fold change vs veh, ZBTB11 / RFU, TAMM41 / Fold change vs veh, TAMM41 / RFU, KIAA1704 /// LOC100996395 / Fold change vs veh, KIAA1704 /// LOC100996395 / RFU, ING1 / Fold change vs veh, ING1 / RFU, TRMT61B / Fold change vs veh, TRMT61B / RFU, FUBP3 / Fold change vs veh, FUBP3 / RFU, TP53 / Fold change vs veh, TP53 / RFU, TNKS2 / Fold change vs veh, TNKS2 / RFU, ZFP14 / Fold change vs veh, ZFP14 / RFU, ACTR2 / Fold change vs veh, ACTR2 / RFU, PPP3R1 / Fold change vs veh, PPP3R1 / RFU, PIK3R1 / Fold change vs veh, PIK3R1 / RFU, HNRNPA1 / Fold change vs veh, HNRNPA1 / RFU, RNF170 / Fold change vs veh, RNF170 / RFU, ZNF28 / Fold change vs veh, ZNF28 / RFU, RNGTT / Fold change vs veh, RNGTT / RFU, OGT / Fold change vs veh, OGT / RFU, BRD1 / Fold change vs veh, BRD1 / RFU, MARS / Fold change vs veh, MARS / RFU, ZNF655 / Fold change vs veh, ZNF655 / RFU, FAHD1 / Fold change vs veh, FAHD1 / RFU, BDP1 / Fold change vs veh, BDP1 / RFU, LRRCC1 / Fold change vs veh, LRRCC1 / RFU, ARID1A / Fold change vs veh, ARID1A / RFU, ZNF146 / Fold change vs veh, ZNF146 / RFU, ZNF330 / Fold change vs veh, ZNF330 / RFU, GPN3 / Fold change vs veh, GPN3 / RFU, C9orf123 / Fold change vs veh, C9orf123 / RFU, N4BP2L2 / Fold change vs veh, N4BP2L2 / RFU, ARFIP1 / Fold change vs veh, ARFIP1 / RFU, FAM179B / Fold change vs veh, FAM179B / RFU, BCL10 / Fold change vs veh, BCL10 / RFU, UHRF1BP1L / Fold change vs veh, UHRF1BP1L / RFU, BET1 / Fold change vs veh, BET1 / RFU, CNOT2 / Fold change vs veh, CNOT2 / RFU, ZNF268 / Fold change vs veh, ZNF268 / Fold change vs veh, ZNF507 / RFU, DGCR2 / Fold change vs veh, DGCR2 / RFU, WDSUB1 / Fold change vs veh, WDSUB1 / Fold change vs veh, HSP90B1 /// MIR3652 / RFU, ADSS / Fold change vs veh, ADSS / RFU, GK / Fold change vs veh, GK / RFU, ZNF148 / Fold change vs veh, ZNF148 / RFU, TAF9 / Fold change vs veh, TAF9 / RFU, SLC1A5 / Fold change vs veh, SLC1A5 / RFU, SLMO2 / Fold change vs veh, SLMO2 / RFU, ABCC4 / Fold change vs veh, ABCC4 / RFU, LOC101060439 /// RAP1B / Fold change vs veh, LOC101060439 /// RAP1B / RFU, RFX7 / Fold change vs veh, RFX7 / RFU, GTPBP10 / Fold change vs veh, GTPBP10 / RFU, CNEP1R1 / Fold change vs veh, CNEP1R1 / RFU, BIVM-ERCC5 /// ERCC5 / Fold change vs veh, BIVM-ERCC5 /// ERCC5 / RFU, ILF3 / Fold change vs veh, ILF3 / RFU 11762660_at / Fold change /veh 11762660_at / RFU VCAN (11757783_s_at) / Fold change /veh VCAN (11757783_s_at) / RFU DDX43 (11728927_at) / Fold change /veh DDX43 (11728927_at) / RFU KRT8 (11758188_x_at) / Fold change /veh KRT8 (11758188_x_at) / RFU NKD1 (11759106_at) / Fold change /veh NKD1 (11759106_at) / RFU SRD5A1 (11742802_a_at) / Fold change /veh SRD5A1 (11742802_a_at) / RFU TPSAB1 /// TPSB2 (11721975_s_at) / Fold change /veh TPSAB1 /// TPSB2 (11721975_s_at) / RFU GSTM3 (11746129_a_at) / Fold change /veh GSTM3 (11746129_a_at) / RFU IL23R (11737362_x_at) / Fold change /veh IL23R (11737362_x_at) / RFU TMEM51 (11727254_a_at) / Fold change /veh TMEM51 (11727254_a_at) / RFU PIWIL2 (11732686_x_at) / Fold change /veh PIWIL2 (11732686_x_at) / RFU ORM1 (11744905_x_at) / Fold change /veh ORM1 (11744905_x_at) / RFU CCDC152 (11743942_at) / Fold change /veh CCDC152 (11743942_at) / RFU ECM1 (11717891_a_at) / Fold change /veh ECM1 (11717891_a_at) / RFU IL23R (11748794_a_at) / Fold change /veh IL23R (11748794_a_at) / RFU TNFAIP8L3 (11732012_x_at) / Fold change /veh TNFAIP8L3 (11732012_x_at) / RFU MBOAT4 (11741988_at) / Fold change /veh MBOAT4 (11741988_at) / RFU 11764193_at / Fold change /veh 11764193_at / RFU TMEM53 (11763286_at) / Fold change /veh TMEM53 (11763286_at) / RFU MAGEB2 (11727129_at) / Fold change /veh MAGEB2 (11727129_at) / RFU TMEM200A (11744735_a_at) / Fold change /veh TMEM200A (11744735_a_at) / RFU CCDC152 (11751479_a_at) / Fold change /veh CCDC152 (11751479_a_at) / RFU FAM211A (11726209_a_at) / Fold change /veh FAM211A (11726209_a_at) / RFU RGS16 (11746705_a_at) / Fold change /veh RGS16 (11746705_a_at) / RFU VCAN (11755009_s_at) / Fold change /veh VCAN (11755009_s_at) / RFU RHOB (11743442_s_at) / Fold change /veh RHOB (11743442_s_at) / RFU RGS16 (11720943_a_at) / Fold change /veh RGS16 (11720943_a_at) / RFU RGS16 (11720944_at) / Fold change /veh RGS16 (11720944_at) / RFU, VPS4B / Fold change vs veh, VPS4B / RFU, CREB1 / Fold change vs veh, CREB1 / RFU, DNAJC13 / Fold change vs veh, DNAJC13 / RFU, GNAQ / Fold change vs veh, GNAQ / RFU, CDK5R1 / Fold change vs veh, CDK5R1 / RFU, ZRANB3 / Fold change vs veh, ZRANB3 / RFU, CUL4A / Fold change vs veh, CUL4A / RFU, CCNY / Fold change vs veh, CCNY / RFU, UFL1 / Fold change vs veh, UFL1 / RFU, COG3 / Fold change vs veh, COG3 / RFU, DIAPH2 / Fold change vs veh, DIAPH2 / RFU, SKA2 / Fold change vs veh, SKA2 / RFU, AFF3 / Fold change vs veh, AFF3 / RFU, LMF1 / Fold change vs veh, LMF1 / RFU, IPO11 / Fold change vs veh, IPO11 / RFU, DFFB / Fold change vs veh, DFFB / RFU, FOXP1 / Fold change vs veh, FOXP1 / RFU, CARD8 / Fold change vs veh, CARD8 / RFU, STRN3 / Fold change vs veh, STRN3 / RFU, ADK / Fold change vs veh, ADK / RFU, RASSF2 / Fold change vs veh, RASSF2 / RFU, WIPF1 / Fold change vs veh, WIPF1 / RFU, LARP1B / Fold change vs veh, LARP1B / RFU, RASA1 / Fold change vs veh, RASA1 / RFU, RB1 / Fold change vs veh, RB1 / RFU, PPFIA1 / Fold change vs veh, PPFIA1 / RFU, MAT2A / Fold change vs veh, MAT2A / RFU, CCT5 / Fold change vs veh, CCT5 / RFU, WDR92 / Fold change vs veh, WDR92 / RFU, CUX1 / Fold change vs veh, CUX1 / RFU, TTC7A / Fold change vs veh, TTC7A / RFU, TMEM135 / Fold change vs veh, TMEM135 / RFU, DEPTOR / Fold change vs veh, DEPTOR / RFU, CPM / Fold change vs veh, CPM / RFU, DNAJB6 / Fold change vs veh, DNAJB6 / RFU, CACNA2D3 / Fold change vs veh, CACNA2D3 / RFU, DTX4 / Fold change vs veh, DTX4 / RFU, TFCP2 / Fold change vs veh, TFCP2 / RFU, GMCL1 /// GMCL1P1 / Fold change vs veh, GMCL1 /// GMCL1P1 / RFU, AEBP2 / Fold change vs veh, AEBP2 / RFU, SNHG1 /// SNORD22 /// SNORD25 /// SNORD26 /// SNORD27 /// SNORD28 /// SNORD29 /// SNORD31 / Fold change vs veh, SNHG1 /// SNORD22 /// SNORD25 /// SNORD26 /// SNORD27 /// SNORD28 /// SNORD29 /// SNORD31 / Fold change (Aza/veh), C12orf56 (ProbeSet 11735607_a_at) / Fold change (ACY-1035/veh), C12orf56 (ProbeSet 11735607_a_at) / Fold change (Aza/veh), FGFR1OP (ProbeSet 11751329_s_at) / Fold change (ACY-1035/veh), FGFR1OP (ProbeSet 11751329_s_at) / Fold change (Aza/veh), VPS36 (ProbeSet 11739960_a_at) / Fold change (ACY-1035/veh), VPS36 (ProbeSet 11739960_a_at) / RFU SYPL1 (11715823_x_at) / Fold change /veh SYPL1 (11715823_x_at) / RFU IGFBP7 (11715501_s_at) / Fold change /veh IGFBP7 (11715501_s_at) / RFU REEP3 (11722064_at) / Fold change /veh REEP3 (11722064_at) / RFU IGLL1 (11728026_x_at) / Fold change /veh IGLL1 (11728026_x_at): dose or concentration left out as unconfirmed
Conditions: MV-4-11 cells, 48 hours

Nc1ccc(-c2cccs2)cc1NC(=O)c1ccc2c(c1)cc(C1CC1)n2CCN1CCOCC1 [ACY-1035]
RFU VCAN (11757783_s_at): 8.50 RFU
